According to US20080051598A1, “Process for Production of Polysubstituted Cyclobutanes and Polysubstituted Cyclobutenes” (priority 2004, published 2008):

Columns and labels:
[1] = test system: cultured Plasmodium falciparum; assay: growth inhibition of malaria parasites; format: cell-based; settings: read-out: concentration at which growth of cultured Plasmodium falciparum was 50% inhibited
Protocol: An evaluation was conducted of growth inhibition of malaria parasites by a compound 9 derived by chemical conversion of cyclobutane compound 8 synthesized according to the present invention. As a result, the growth of cultured Plasmodium falciparum was 50% inhibited by a low concentration of 1 μM of compound 9. [drawing 60]

[2] = test system: colon cancer cells (HCT116); assay: anti-tumor effects, growth of colon cancer cells; format: cell-based; settings: concentration 25 μg/mL
Protocol: An evaluation was conducted of the anti-tumor effects of a compound 11 derived by chemical conversion of cyclobutane compound 10 synthesized according to the present invention. As a result, the growth of colon cancer cells (HCT116) was inhibited by a low concentration of 25 μg/mL of compound 11. [drawing 61]

Structure (SMILES)	IC50 [1]	growth of colon cancer cells (HCT116) [2]
OC[C@H]1C2CCC[C@@]23CCC[C@@]13O (some centres unmarked) [compound 9]	1000 nM	–
CC(=O)OC12CCC1(C)C1CC(C)(C)CC2C=C1C (centres unmarked) [compound 11]	–	inhibited
